US7674819B2 (Warner-Lambert Company LLC, priority 2005, dated 2010)
Residue numbers refer to the chain shown, from its start. Where two headings read alike, the source gives them in different places.

Columns and labels:
hAR = molecular target: T1, hAR (Homo sapiens, UniProt P10275); assay: Competitive binding of 3H-DHT to baculovirus/Sf9 generated hAR extracts; details: one hour at 4° C., mean of multiple tests
T1 sequence (P10275 1-920): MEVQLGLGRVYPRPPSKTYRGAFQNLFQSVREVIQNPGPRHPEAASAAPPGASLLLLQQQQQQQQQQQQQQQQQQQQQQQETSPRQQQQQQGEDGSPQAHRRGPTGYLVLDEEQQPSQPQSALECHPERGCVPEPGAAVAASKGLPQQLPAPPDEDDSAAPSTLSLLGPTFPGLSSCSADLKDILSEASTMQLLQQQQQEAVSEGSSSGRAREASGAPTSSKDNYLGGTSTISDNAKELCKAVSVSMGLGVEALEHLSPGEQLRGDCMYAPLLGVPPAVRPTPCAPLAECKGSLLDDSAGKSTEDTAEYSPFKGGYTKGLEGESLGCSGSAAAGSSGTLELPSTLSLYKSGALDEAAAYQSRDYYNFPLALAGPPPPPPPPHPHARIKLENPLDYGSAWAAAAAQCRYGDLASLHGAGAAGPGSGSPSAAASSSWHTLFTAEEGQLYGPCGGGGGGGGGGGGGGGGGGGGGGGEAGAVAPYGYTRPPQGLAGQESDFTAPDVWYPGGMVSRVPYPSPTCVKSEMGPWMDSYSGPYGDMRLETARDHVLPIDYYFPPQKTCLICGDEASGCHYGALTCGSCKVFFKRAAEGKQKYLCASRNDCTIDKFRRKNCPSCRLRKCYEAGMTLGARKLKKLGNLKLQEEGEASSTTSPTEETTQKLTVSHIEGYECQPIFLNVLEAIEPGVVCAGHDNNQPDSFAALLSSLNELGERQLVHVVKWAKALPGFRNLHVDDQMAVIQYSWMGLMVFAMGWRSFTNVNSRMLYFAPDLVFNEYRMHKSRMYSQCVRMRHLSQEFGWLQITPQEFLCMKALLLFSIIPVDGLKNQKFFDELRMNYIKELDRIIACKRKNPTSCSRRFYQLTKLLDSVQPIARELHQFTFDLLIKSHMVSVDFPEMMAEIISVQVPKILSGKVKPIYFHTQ
Outline: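 Baculovirus/Sf9-expressed hAR extract incubated with test compound, hydroxylapatite and 1 nM 3H-DHT tracer for 1 h at 4° C, then washed free of unbound tracer. Affinity given as concentration inhibiting half of maximal 3H-DHT binding.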

androgen receptor = molecular target: T2, androgen receptor (Homo sapiens, UniProt P10275); assay: AR Antagonist Cell Assay (MDA-MB453-MMTV clone 54-19, luciferase reporter); format: cell-based; details: inhibition of induction by DHT (final concentration at 100 μM), 17 hr, compound 0.32-1000 nM, mean of multiple tests
T2 sequence (P10275 1-920 Q868H): T1 sequence (P10275 1-920) with Q868H
Protocol: The compounds ability to antagonize the effects of androgen on the androgen receptor were determined in a whole cell assay as described immediately below.
Experimental Procedure for AR Antagonist Cell Assay
This cell line is a stable transfected cell line with MDA-MB453 cell background (a human breast tumor cell line expressing androgen receptor). A MMTV minimal promoter containing ARE was first cloned in front of a firefly luciferase reporter gene. Then the cascade was cloned into transfection vector pUV120puro. […] Puromycin resistant stable cell line was selected.
Cell Culture Media and Reagents:
Plating medium: DMEM (phenol red free), 10% charcoal treated HyClone serum, 1% L-glutamine
Assay medium: DMEM (phenol red free), 1% charcoal treated HyClone serum, 1% L-glutamine, 1% penicillin/streptomycin
Cells are maintained in culture medium, splitting cells when they reach 80-90% confluence
To test compounds, 10,000 cells/well are plated to opaque 96 cell culture plate in 100 ul/well plating medium, culture for overnight at 37° C. in cell culture incubator
Add 10 ul/well freshly prepared DHT (final concentration at […]) to each well, incubate at 37° C. for 17 hr (overnight)
Add 50 ul/well 3× luciferase buffer, incubate at room temperature for 5 minutes, then count on Luminometer
The results are reported as the mean of multiple tests described below (the numbers of tests are indicated in the footnote). N.D. denotes that the compound was not tested.

[1] = IC50, concentration at which one half of maximum binding of 1 nM 3H-DHT to hAR is inhibited
[2] = concentration at which one half of maximum binding of 1 nM 3H-DHT to hAR is inhibited, read-out: IC50

Row | SMILES | IC50 (hAR; [1]) | IC50 (androgen receptor) | IC50 (hAR; [2]) | IC50 (androgen receptor; read-out: IC50)
1 | CC1(C)CN(Cc2ccccc2C#N)C(=O)C1Oc1ccc(C#N)c(C(F)(F)F)c1 (stereo not drawn) [Example 47, 4-[1-(2-Cyano-benzyl)-4,4-dimethyl-2-oxo-pyrrolidin-3-yloxy]-2-trifluoromethyl-benzonitrile] | 83 nM | 42 nM | – | –
2 | CC1(C)CN(Cc2ccc(C#N)cc2)C(=O)C1Oc1ccc(C#N)c(C(F)(F)F)c1 (stereo not drawn) [Example 48, 4-[1-(4-Cyano-benzyl)-4,4-dimethyl-2-oxo-pyrrolidin-3-yloxy]-2-trifluoromethyl-benzonitrile] | – | 62 nM | 109 nM | –
3 | COc1ccc(Cc2noc(CN3CC(C)(C)C(Oc4ccc(C#N)c(C(F)(F)F)c4)C3=O)n2)cc1 (stereo not drawn) [Example 50, 4-{1-[3-(4-Methoxy-benzyl)-[1,2,4]oxadiazol-5-ylmethyl]-4,4-dimethyl-2-oxo-pyrrolidin-3-yloxy}-2-trifluoromethyl-benzonitrile] | – | 35 nM | 152 nM | –
4 | CC1(C)CN(Cc2nc(-c3ccccc3)no2)C(=O)C1Oc1ccc(C#N)c(C(F)(F)F)c1 (stereo not drawn) [Example 52, 4-[4,4-Dimethyl-2-oxo-1-(3-phenyl-[1,2,4]oxadiazol-5-ylmethyl)-pyrrolidin-3-yloxy]-2-trifluoromethyl-benzonitrile] | 160 nM | 54 nM | – | –
5 | CC1(C)CN(Cc2ccc3ccccc3n2)C(=O)C1Oc1ccc(C#N)c(C(F)(F)F)c1 (stereo not drawn) [Example 54, 4-(4,4-Dimethyl-2-oxo-1-quinolin-2-ylmethyl-pyrrolidin-3-yloxy)-2-trifluoromethyl-benzonitrile] | – | – | 217 nM | > 1000 nM
6 | CC1(C)CN(Cc2nnc(-c3ccccc3)o2)C(=O)C1Oc1ccc(C#N)c(C(F)(F)F)c1 (stereo not drawn) [Example 56, 4-[4,4-Dimethyl-2-oxo-1-(5-phenyl-[1,3,4]oxadiazol-2-ylmethyl)-pyrrolidin-3-yloxy]-2-trifluoromethyl-benzonitrile] | 171 nM | 735 nM | – | –
7 | CC1(C)CN(Cc2ccc3nonc3c2)C(=O)C1Oc1ccc(C#N)c(C(F)(F)F)c1 (stereo not drawn) [Example 57, 4-(1-Benzo[1,2,5]oxadiazol-5-ylmethyl-4,4-dimethyl-2-oxo-pyrrolidin-3-yloxy)-2-trifluoromethyl-benzonitrile] | 31 nM | – | – | > 1000 nM
8 | CC1(C)CN(Cc2ccc(-n3cccn3)cc2)C(=O)C1Oc1ccc(C#N)c(C(F)(F)F)c1 (stereo not drawn) [Example 60, 4-[4,4-Dimethyl-2-oxo-1-(4-pyrazol-1-yl-benzyl)-pyrrolidin-3-yloxy]-2-trifluoromethyl-benzonitrile] | – | – | 115 nM | > 1000 nM
9 | Cc1ccc(-c2nnc(CN3CC(C)(C)C(Oc4ccc(C#N)c(C(F)(F)F)c4)C3=O)o2)cc1 (stereo not drawn) [Example 61, 4-[4,4-Dimethyl-2-oxo-1-(5-p-tolyl-[1,3,4]oxadiazol-2-ylmethyl)-pyrrolidin-3-yloxy]-2-trifluoromethyl-benzonitrile] | – | 51 nM | 101 nM | –
10 | CC1(C)CN(Cc2nc(-c3ccc([N+](=O)[O-])cc3)cs2)C(=O)C1Oc1ccc(C#N)c(C(F)(F)F)c1 (stereo not drawn) [Example 65, 4-{4,4-Dimethyl-1-[4-(4-nitro-phenyl)-thiazol-2-ylmethyl]-2-oxo-pyrrolidin-3-yloxy}-2-trifluoromethyl-benzonitrile] | 38 nM | – | – | 228 nM
11 | COc1ccc(-c2nc(CN3CC(C)(C)C(Oc4ccc(C#N)c(C(F)(F)F)c4)C3=O)no2)cc1 (stereo not drawn) [Example 66, 4-{1-[5-(4-Methoxy-phenyl)-[1,2,4]oxadiazol-3-ylmethyl]-4,4-dimethyl-2-oxo-pyrrolidin-3-yloxy}-2-trifluoromethyl-benzonitrile] | – | 84 nM | 142 nM | –
12 | CSCN1CC(C)(C)C(Oc2ccc(C#N)c(C(F)(F)F)c2)C1=O (stereo not drawn) [Example 68, 4-(4,4-Dimethyl-1-methylsulfanylmethyl-2-oxo-pyrrolidin-3-yloxy)-2-trifluoromethyl-benzonitrile] | – | 64 nM | 133 nM | –
